Measured values taken from patent US20010033827A1, “Inhibition of mucin release from airway goblet cells by polycationic peptides” (priority 1999, published 2001).

Columns and labels:
[1] = test system: hamster tracheal surface epithelial (HTSE) cells; assay: Mucin release from cultured airway goblet cells (3H-glucosamine-labelled HTSE cell culture); format: cell-based, Golden Syrian hamsters; details: for effect on mucin release/secretion (dose dependence): varying concentrations; for effect on mucin release/secretion (dose dependence) / "inhibition" of released mucins: 30 min chase, HTSE cells; for inhibitory effect on mucin release after LMWH pretreatment: 10^-5 M peptide, pretreatment with 2×10^-5 M LMWH for 5 min; for "inhibition" of released mucins / effect on mucin release, column-purified versus not column purified: 10^-5 M; for effect on mucin release, column-purified versus not column purified: unacetylated peptide
Procedure: The effects of poly-L-arginine (PLA) and poly-L-lysine (PLL) on mucin release from cultured airway goblet cells were evaluated. Tracheas obtained from 7-8 week old male Golden Syrian hamsters (Harlan Sprague Dawley, Indianapolis, Ind.) were used to establish a hamster tracheal surface epithelial, (HTSE) cell culture. HTSE cells were harvested and cultured on a thick collagen gel as described in Kim et al., 1989, Exp. Lung Res. 15: 299-314. Mucins were metabolically radiolabeled by incubating confluent cultures (24 well plate, 5×10^5 cells/well) with 0.2 ml/well of a “complete” medium containing 10 μCi/ml of ^3H-glucosamine for 24 hours as described in Kim et al., 1989, Am. J. Resp. Cell Mol. Biol. 1: 137-143. The “complete” medium was prepared by supplementing a mixture of Medium 199/Dulbecco's modified Eagle's medium (DME) (1:1) with insulin (5 μg/ml), transferrin (5 μg/ml), epidermal growth factor (12.5 ng/ml), 0.1 μM hydrocortisone, 0.01 μM sodium selenite, 0.1 μM retinoic acid, and 5% fetal bovine serum (Hyclone, Logan, Utah). At the end of the 24 hour incubation period, the spent media (the pretreatment sample) were collected, and the labeled cultures were washed twice with Dulbecco's PBS without Ca^++ and Mg^++ and then chased for 30 min in the presence of varying concentrations of poly-L-arginine (PLA, average MW 8,900) or poly-L-lysine (PLL, average MW 9,600). The chased media are referred to as the treatment samples. PLA and PLL were prepared in phosphate buffered saline (PBS), and the final pH's of these solutions were adjusted to be between 7.0 and 7.4. […] J. Resp. Cell Mol. Biol. 1: 137-143. At the end of the chase period, floating cells and cell debris were removed from the treatment samples by centrifigation at 12,000×g for 5 min. Fifty μl of the treatment samples were used for lactate dehydrogenase (LDH) assay (as discussed in Example 2 below) and the remaining samples were stored at −80° C. until assayed for their ^3H-mucin contents. High molecular weight glycoconjugates that were excluded after Sepharose CL-4B (Phainacia, Upsaala, Sweden) gel-filtration column chromatography and that were resistant to hyaluronidase, were defined as mucins, as described in Kim et al., 1985, J. Biol. Chem. 260:4021:4027. Mucins were measured by column chromatography as described in Kim et al, 1987, Proc. Natl. Acad. Sci. USA 84:9304-9308.

HTSE cells [2] = assay: LDH release cytotoxicity assay in HTSE cells; format: cell-based, Golden Syrian hamsters; details: for cytotoxicity as determined by LDH release / LDH release: HTSE cells; for cytotoxicity as determined by LDH release: techniques of examples 1-4; for LDH release: 10^-5 M, 30 min treatment; for LDH release across concentration groups: varying concentrations, 30 min, HTSE cells (FIG. 2)
Procedure: (§1) The effects of PLA or PLL on cell toxicity were also examined. The possible cytotoxicity of these polypeptides was assessed by four different methods: (a) LDH release, (b) ^51Cr release, (c) cell exfoliation, and (d) light microscopy. Cultures were treated with either PLA or PLL for 30 min, and then assayed as follows. An LDH assay was conducted using an LDH assay kit (LD-L10) (Sigma Chemical Co., St. Louis, Mo.), according to the manufacturer's directions. A 51Cr release assay was carried out as described in Kim et al., 1987, Proc. Natl. Acad. Sci. USA 84:9304-9308. The degree of exfoliation was measured by counting the floating cells at the end of the 24 hr post-treatment period. Floating cells were collected as a pellet from spent media by centrifugation at 200×g for 5 min at 4° C. The resulting cell pellet was suspended in a solution containing 0.05% Trypsin and 0.02% EDTA, and the suspension was incubated at 37° C. for 10 min before dissociated cells were counted using a hemacytometer.

[3] = test system: SO2-induced goblet cell metaplasia; assay: SO2-induced goblet cell metaplasia in rats (inhaled peptide, PAS staining); format: in vivo, Sprague-Dawley rats; details: rat, inhaled 100 μl of 50, 500 or 5,000 μM once a day for five days, 150 ppm SO2
Procedure: To examine the effects of PLL or PLA in vivo, the effect of PLL or PLA on goblet cell metaplasia in rats was determined. Exposure of rats to SO2 was carried out essentially according to the method described in Kase et al, 1982, Arzneim-Forsch Drug Research 32:368-373. Eight to ten week-old male Sprague-Dawley rats were placed in a polyacrylic chamber (100 cm×60 cm×25 cm) and exposed to SO2 for three weeks, three hours per day, five days per week. The SO2 gas was generated from a solution containing 10% (W/V) sodium metabisulfite by aerosolization using an ultrasonic humidifier (Samsung Electronic Co., Korea). Concentrations of the generated SO2 gas were monitored before and after the exposure using a SO2 detector kit (Gastec Co., Japan), which has a detection range from 20 to 3600 ppm of SO2. The concentration of the SO2 gas inside the chamber was maintained at 150 ppm during all of the exposure periods.
PLA (average MW 10,800) was prepared in phosphate buffered saline (PBS), pH 7.2, in various concentrations. Following treatment of the animals with SO2 for 2 weeks, animals were treated with both S and PLA during a third week. A 100 μl aliquot of one of the PLA solutions was administered to each rat using an inhaler (PAPI master, Stamberg, Germany), once a day for five consecutive days, during the period immediately following the two week SO2 treatment period. […]

HTSE cells [4] = assay: Cell exfoliation (floating cell count) in HTSE cultures; format: cell-based, Golden Syrian hamsters; details: 10^-5 M; 24 hr post-treatment period; control 1992±132
Procedure: as §1

HTSE cells [5] = assay: ATP-induced mucin release in HTSE cells; format: cell-based, Golden Syrian hamsters; details: 10^-5 M peptide with 2×10^-4 M ATP, 30 min chase
Procedure: The effects of poly-L-arginine (PLA) and poly-L-lysine (PLL) on mucin release from cultured airway goblet cells were evaluated. Tracheas obtained from 7-8 week old male Golden Syrian hamsters (Harlan Sprague Dawley, Indianapolis, Ind.) were used to establish a hamster tracheal surface epithelial, (HTSE) cell culture. HTSE cells were harvested and cultured on a thick collagen gel as described in Kim et al., 1989, Exp. Lung Res. 15: 299-314. Mucins were metabolically radiolabeled by incubating confluent cultures (24 well plate, 5×10^5 cells/well) with 0.2 ml/well of a “complete” medium containing 10 μCi/ml of ^3H-glucosamine for 24 hours as described in Kim et al., 1989, Am. J. Resp. Cell Mol. Biol. 1: 137-143. The “complete” medium was prepared by supplementing a mixture of Medium 199/Dulbecco's modified Eagle's medium (DME) (1:1) with insulin (5 μg/ml), transferrin (5 μg/ml), epidermal growth factor (12.5 ng/ml), 0.1 μM hydrocortisone, 0.01 μM sodium selenite, 0.1 μM retinoic acid, and 5% fetal bovine serum (Hyclone, Logan, Utah). […] Mucins were measured by column chromatography as described in Kim et al, 1987, Proc. Natl. Acad. Sci. USA 84:9304-9308. […]

HTSE cells [6] = assay: 51Cr release assay in HTSE cells; format: cell-based, Golden Syrian hamsters; details: 10^-5 M, 30 min; control 100±4%
Procedure: as §1

HTSE cells [7] = assay: Light microscopy of treated HTSE cells; format: cell-based, Golden Syrian hamsters; details: end of 30 min treatment or end of 24 hr post-treatment period
Procedure: as §1

## poly-L-lysine [Low molecular weight PLL (20 residues)]
[1]
  effect on mucin release/secretion (dose dependence): inhibited mucin secretion in a dose dependent fashion
HTSE cells [2]
  cytotoxicity as determined by LDH release: without any evidence of cytotoxicity

## poly-L-arginine [PLA (average MW 10,800)]
[3]
  goblet cell metaplasia induced by SO2: prevented by PLA in a dose-dependent fashion

## poly-L-arginine [Low molecular weight PLA (14 residues)]
[1]
  effect on mucin release/secretion (dose dependence): inhibited mucin secretion in a dose dependent fashion
HTSE cells [2]
  cytotoxicity as determined by LDH release: without any evidence of cytotoxicity

## poly-L-lysine [High molecular weight PLL]
[1]
  effect on mucin release/secretion (dose dependence): inhibited mucin secretion in a dose-dependent fashion
HTSE cells [2]
  cytotoxicity as determined by LDH release: associated with cytotoxicity

## poly-L-lysine [Low molecular weight PLL (14 residues)]
[1]
  effect on mucin release/secretion (dose dependence): inhibited mucin secretion in a dose dependent fashion
HTSE cells [2]
  cytotoxicity as determined by LDH release: without any evidence of cytotoxicity

## poly-L-arginine [Low molecular weight PLA (20 residues)]
[1]
  effect on mucin release/secretion (dose dependence): inhibited mucin secretion in a dose dependent fashion
HTSE cells [2]
  cytotoxicity as determined by LDH release: without any evidence of cytotoxicity

## poly-L-arginine [PLA (5 residues)]
[1]
  effect on mucin release/secretion (dose dependence): did not show any significant inhibition

## poly-L-arginine [High molecular weight PLA]
[1]
  effect on mucin release/secretion (dose dependence): inhibited mucin secretion in a dose-dependent fashion
HTSE cells [2]
  cytotoxicity as determined by LDH release: associated with cytotoxicity

## poly-L-lysine [PLL]
HTSE cells [4]
  number of floating cells/well: 1920±70 cells/well
HTSE cells [5]
  stimulatory effect of ATP on mucin release: completely blocked
[1]
  inhibitory effect on mucin release after LMWH pretreatment: completely blocked
  "inhibition" of released mucins: 87%
  effect on mucin release, column-purified versus not column purified: no significant difference
  effect on mucin release/secretion (dose dependence): dose-dependent decrease
HTSE cells [6]
  51Cr release: 103±10%
HTSE cells [7]
  microscopic difference between control and treated cells: no apparent microscopic difference
HTSE cells [2]
  LDH release: no significant increases
  LDH release across concentration groups: no significant difference

## poly-L-arginine [PLA]
HTSE cells [4]
  number of floating cells/well: 2154±84 cells/well
HTSE cells [5]
  stimulatory effect of ATP on mucin release: completely blocked
[1]
  inhibitory effect on mucin release after LMWH pretreatment: completely blocked
  "inhibition" of released mucins: 85%
  effect on mucin release, column-purified versus not column purified: no significant difference
  effect on mucin release/secretion (dose dependence): dose-dependent decrease
HTSE cells [6]
  51Cr release: 102±11%
HTSE cells [7]
  microscopic difference between control and treated cells: no apparent microscopic difference
HTSE cells [2]
  LDH release: no significant increases
  LDH release across concentration groups: no significant difference

## poly-L-lysine [Low molecular weight PLL (5 residues)]
[1]
  effect on mucin release/secretion (dose dependence): did not show any significant inhibition
